Patent US20240002388A1, “PYRIMIDINONE COMPOUNDS AND USES THEREOF” (HUTCHISON MEDIPHARMA LIMITED, priority 2020, published 2024)

test system: L929 cell line (mouse fibroblastoma cell line); test: L929 cell viability assay (mTNF-α + Z-VAD-FMK induced necroptosis); format: cell-based; settings: L929 cells, mTNF-α 0.1 μg/mL + Z-VAD-FMK 5 μM, 20 hours, CellTiter-Glo
Protocol: L929 cell line (mouse fibroblastoma cell line): purchased from ATCC (American Type Culture Collection) Cell Bank, cultured in 5% CO2, 37° C. incubator, and MEM medium which contains L-Glutamine, with 10% FBS was used. • MEM medium: GIBCO, Cat #11095080; • Fetal bovine serum (FBS): GIBCO, Cat #10099-141C; • Dimethyl sulfoxide (DMSO): Sigma, Cat #D2650; • 0.25% Trypsin-EDTA: GIBCO, Cat #25200072; • Recombinant Mouse TNF-alpha Protein (mTNF-α): R&D system, Cat #410-MT-050; • Pan-Caspase inhibitor (Z-VAD-FMK): Selleckchem, Cat #S7023; • CellTiter-Glo 2.0 Cell Viability Assay kit: Promega, Cat #G9242; • Microwell plate reader: Envision, Perkin Elmer; • 96-well plate: Corning, Cat #3917.
The L929 cells at the logarithmic phase were taken out, and the supernatant was discarded. After trypsinization and cell shedding, 10% FBS-containing medium was added for neutralization, and the supernatant was discarded after centrifugation. The cells were re-suspended using 10% FBS-containing medium, adjusted to 7×10^4 cells/ml, added to 96-well microplate at 70 μL/well, i.e., 4.9×10^3 cells/well. Then the plate was incubated in a 5% CO2, 37° C. cell incubator overnight.
After incubating overnight, the 96-well plate was taken out, the medium was discarded, and the plate was washed with 1% FBS-containing MEM medium. Then 1% FBS-containing MEM medium was added at 70 μL/well, and the plate was cultured in a 5% CO2, 37° C. cell incubator. After incubating for 1 hour, the test compound was diluted to the corresponding concentrations using DMSO with 3-fold serial dilution, then the corresponding concentration of DMSO diluted solution was diluted into 1% FBS-containing MEM medium, and 10 μL/well of the diluted test compound with different concentrations (final concentrations of test compound were 10, 3.33, 1.11, 0.37, 0.12, 0.04, 0.014 and 0.005 μM, while final concentration of DMSO was 0.3%) or 10 μL/well control solution (3% DMSO) were added to the cell culture system respectively, with the total volume being 80 μL/well. Then 10 μL of Z-VAD-FMK solution diluted with 1% FBS-containing MEM medium (final concentration of 5 μM) or 10 μL of control solution (2.5% DMSO) was added to each well, with the total volume being 90 μL/well. The plate was incubated in a 5% CO2, 37° C. cell culture incubator for 1 hour.
After incubating for 1 hour, 10 μL of recombinant mouse TNF-α protein solution diluted with 1% FBS-containing MEM medium (final concentration of 0.1 μg/mL) or 10 μL control solution (1% FBS-containing MEM medium) was added to each well. The plate was incubated in a 5% CO2, 37° C. cell culture incubator for 20 hours.
The cell culture plate was taken out from the incubator, and left to stand at room temperature for 30 minutes. Meanwhile, CellTiter-Glo viability assay kit was put from freezer to room temperature, and 50 μL of CellTiter-Glo reagent was added to all wells, the plate was shaken for 1 minutes, protected from light at room temperature for 10 minutes then read the plate on Envision to get the luminescence signal.
The 96-well plate in the dark was taken out, and the chemiluminescence was determined using the Envision microwell plate reader as the signal value of each well.
The mean signal value of the wells of the mixed solution of recombinant mouse TNF-alpha protein (final concentration of 0.1 μg/mL) and Pan-Caspase inhibitor (final concentration of 5 μM) was used as the lower value, and the mean signal value of the wells without stimulation was used as the upper value. According to the signal value of each well, the inhibition rate of each concentration of every compound was calculated, and the IC50 value of compound was obtained by Model 205 in XL-Fit 5.3 software (ID Business Solutions Limited).
Inhibition rate %=[(Luminescence readout of treated compound−Luminescence readout of positive control)/(Luminescence readout of negative control−Luminescence readout of positive control)]×100%, wherein

| Structure (SMILES) | IC50 |
| --- | --- |
| CC(C)n1ncc2cnc(C(=O)NC3(c4ccc(-c5cncn([C@H]6C[C@@H](F)C6)c5=O)cc4)CC3)nc21 [Compound 88, N-(1-(4-(1-(cis-3-fluorocyclobutyl)-6-oxo-1,6-dihydropyrimidin-5-yl)phenyl)cyclopropyl)-1-i-propyl-1H-pyrazolo[3,4-d]pyrimidine-6-carboxamide] | 335 nM |

same assay, conditions: Mus musculus, L929, 20 h, L929 cells, mTNF-α 0.1 μg/mL + Z-VAD-FMK 5 μM, CellTiter-Glo

| Structure (SMILES) | IC50 |
| --- | --- |
| CC(C)n1ncc2cnc(C(=O)NC3(c4ccc(-c5cncn(C6COC6)c5=O)cc4)CC3)nc21 [Compound 41] | 1970 nM |
| CC(C)n1ncc2cnc(C(=O)NC3(c4ccc(-c5cncn(C6CCC6)c5=O)cc4)CC3)nc21 [Compound 42] | 119 nM |
| CC[C@H](C)n1cncc(-c2ccc(C3(NC(=O)c4ncc5cnn(C(C)C)c5n4)CC3)cc2)c1=O [Compound 43] | 16 nM |
| CC[C@@H](C)n1cncc(-c2ccc(C3(NC(=O)c4ncc5cnn(C(C)C)c5n4)CC3)cc2)c1=O [Compound 44] | 28 nM |
| CC(C)Cn1cncc(-c2ccc(C3(NC(=O)c4ncc5cnn(C(C)C)c5n4)CC3)cc2)c1=O [Compound 45] | 58 nM |
| Cn1cncc(-c2ccc(C3(NC(=O)c4nc5n(n4)[C@@H](c4ccccc4)CC5)CC3)cc2)c1=O [Compound 54, (R)—N-(1-(4-(1-methyl-6-oxo-1,6-dihydropyrimidin-5-yl)phenyl)cyclopropyl)-5-phenyl-6,7-dihydro-5H-pyrrolo[1,2-b][1,2,4]triazole-2-carboxamide] | 578 nM |
| C[C@H](c1ccccc1)n1cnc(C(=O)NC2(c3ccc(-c4cncn(C)c4=O)cc3)CC2)n1 [Compound 55, (R)—N-(1-(4-(1-methyl-6-oxo-1,6-dihydropyrimidin-5-yl)phenyl)cyclopropyl)-1-(1-phenylethyl)-1H-1,2,4-triazole-3-carboxamide] | 259 nM |
| CC(C)n1cncc(-c2ccc(C3(NC(=O)c4ncc5cnn(C6COC6)c5n4)CC3)cc2)c1=O [Compound 60] | 9080 nM |
| CC(C)n1cncc(-c2ccc(C3(NC(=O)c4ncc5cnn(CC6CC6)c5n4)CC3)cc2)c1=O [Compound 61] | 48 nM |
| CC(C)n1cncc(-c2ccc(C3(NC(=O)c4ncc5cnn(CC6CCC6)c5n4)CC3)cc2)c1=O [Compound 62] | 27 nM |
| CC(C)n1cncc(-c2ccc(C3(NC(=O)c4ncc5cnn(-c6ccccn6)c5n4)CC3)cc2)c1=O [Compound 63] | 9420 nM |
| O=C(NC1(c2ccc(-c3cncn(CC4CC4)c3=O)cc2)CC1)c1ncc2cnn(CC3CC3)c2n1 [Compound 64] | 79 nM |
| CC(C)n1ncc2cnc(C(=O)NC3(c4ccc(-c5cncn(C6CC(F)(F)C6)c5=O)cc4)CC3)nc21 [Compound 65] | 861 nM |
| CC(C)n1ncc2cnc(C(=O)NC3(c4ccc(-c5cncn(CC6CCC6)c5=O)cc4)CC3)nc21 [Compound 66] | 53 nM |
| CC(C)n1ncc2cnc(C(=O)NC3(c4ccc(-c5cncn([C@H]6C[C@@H]6F)c5=O)cc4)CC3)nc21 [Compound 67] | 5650 nM |
| C[C@H](n1cncc(-c2ccc(C3(NC(=O)c4ncc5cnn(CC6CC6)c5n4)CC3)cc2)c1=O)C(F)(F)F [Compound 68] | 32 nM |
| CC(C)n1ncc2cnc(C(=O)NC3(c4ccc(-c5cncn([C@@H]6C[C@@H]6F)c5=O)cc4)CC3)nc21 [Compound 69] | 98 nM |
| C[C@@H](n1cncc(-c2ccc(C3(NC(=O)c4ncc5cnn(CC6CC6)c5n4)CC3)cc2)c1=O)C(F)(F)F [Compound 70] | 12 nM |
| C[C@H](n1cncc(-c2ccc(C3(NC(=O)c4ncc5cnn(CC6CC6)c5n4)CC3)c(F)c2)c1=O)C(F)(F)F [Compound 71] | 20 nM |

| Structure (SMILES) | IC50 |
| --- | --- |
| CC(C)n1cncc(-c2ccc(C3(NC(=O)c4ncc5cnn(CC6CC6)c5n4)CC3)c(F)c2)c1=O [Compound 72] | 16 nM |
| CC(C)n1cncc(-c2ccc(C3(NC(=O)c4ncc5cnn(CC6CC6)c5n4)CC3)cc2F)c1=O [Compound 73] | 41 nM |
| CC(C)n1ncc2cnc(C(=O)NC3(c4ccc(-c5cncn(CC6CC6)c5=O)cc4F)CC3)nc21 [Compound 74] | 30 nM |
| CC(C)n1ncc2cnc(C(=O)NC3(c4ccc(-c5cncn(CC6CC6)c5=O)c(F)c4)CC3)nc21 [Compound 75] | 41 nM |
| C[C@@H](n1cncc(-c2ccc(C3(NC(=O)c4ncc5cnn(CC6CC6)c5n4)CC3)c(F)c2)c1=O)C(F)(F)F [Compound 76] | 32 nM |
| CC(C)n1ncc2cnc(C(=O)NC3(c4ccc(-c5cncn(C6CCOCC6)c5=O)cc4)CC3)nc21 [Compound 77] | 151 nM |
| CC(C)n1ncc2cnc(C(=O)NC3(c4ccc(-c5cncn(C6(C)CC6)c5=O)cc4)CC3)nc21 [Compound 78] | 44 nM |
| CC(C)n1ncc2cnc(C(=O)NC3(c4ccc(-c5cncn(C6(C)CCC6)c5=O)cc4)CC3)nc21 [Compound 79] | 10 nM |
| CC(C)n1ncc2cnc(C(=O)NC3(c4ccc(-c5cncn([C@H](C)C6CC6)c5=O)cc4)CC3)nc21 [Compound 84, (R)—N-(1-(4-(1-(1-cyclopropylethyl)-6-oxo-1,6-dihydropyrimidin-5-yl)phenyl)cyclopropyl)-1-i-propyl-1H-pyrazolo[3,4-d]pyrimidine-6-carboxamide] | 7 nM |
| CC(C)n1ncc2cnc(C(=O)NC3(c4ccc(-c5cncn([C@@H](C)C6CC6)c5=O)cc4)CC3)nc21 [Compound 85, (S)—N-(1-(4-(1-(1-cyclopropylethyl)-6-oxo-1,6-dihydropyrimidin-5-yl)phenyl)cyclopropyl)-1-i-propyl-1H-pyrazolo[3,4-d]pyrimidine-6-carboxamide] | 13 nM |
| CC(C)n1ncc2cnc(C(=O)NC3(c4ccc(-c5cncn(CC6(C)CC6)c5=O)cc4)CC3)nc21 [Compound 86] | 19 nM |
| CC(C)n1ncc2cnc(C(=O)NC3(c4ccc(-c5cncn([C@H]6C[C@H](F)C6)c5=O)cc4)CC3)nc21 [Compound 87, N-(1-(4-(1-(trans-3-fluorocyclobutyl)-6-oxo-1,6-dihydropyrimidin-5-yl)phenyl)cyclopropyl)-1-i-propyl-1H-pyrazolo[3,4-d]pyrimidine-6-carboxamide] | 393 nM |
| CC(C)n1cncc(-c2ccc(C3(NC(=O)c4ncc5cnn([C@H](C)C6CC6)c5n4)CC3)cc2)c1=O [Compound 89, (R)-1-(1-cyclopropylethyl)-N-(1-(4-(1-i-propyl-6-oxo-1,6-dihydropyrimidin-5-yl)phenyl)cyclopropyl)-1H-pyrazolo[3,4-d]pyrimidine-6-carboxamide] | 38 nM |
| CC(C)n1cncc(-c2ccc(C3(NC(=O)c4ncc5cnn([C@@H](C)C6CC6)c5n4)CC3)cc2)c1=O [Compound 90, (S)-1-(1-cyclopropylethyl)-N-(1-(4-(1-i-propyl-6-oxo-1,6-dihydropyrimidin-5-yl)phenyl)cyclopropyl)-1H-pyrazolo[3,4-d]pyrimidine-6-carboxamide] | 12 nM |
| CC(C)n1cncc(-c2ccc(C3(NC(=O)c4ncc5cnn(C(C)C)c5n4)CC3)c(F)c2Cl)c1=O [Compound 91] | 786 nM |
| CC(C)n1cncc(-c2cc(F)c(C3(NC(=O)c4ncc5cnn(C(C)C)c5n4)CC3)c(F)c2)c1=O [Compound 92] | 3130 nM |
| CC(C)n1cncc(-c2ccc(C3(NC(=O)c4ncc5cnn(C(C)C)c5n4)CC3)c(F)c2F)c1=O [Compound 93] | 148 nM |
| CC(C)n1ncc2cnc(C(=O)NC3(c4cc(F)c(-c5cncn(CC6CC6)c5=O)cc4F)CC3)nc21 [Compound 94] | 50 nM |
| CC(C)n1ncc2cnc(C(=O)NC3(c4ccc(-c5cncn(CC6CC6)c5=O)c(F)c4F)CC3)nc21 [Compound 95] | 145 nM |
